Source: ChEMBL document CHEMBL4507313, “Data for DCP probe BAY-179” (2021)

Tests used:
[1] = biological target: T1, Sigma non-opioid intracellular receptor 1 (Homo sapiens, UniProt Q99720); conditions: Compound concentration 10.0 uM
[2] = biological target: T2, GABA-A receptor; anion channel (Rattus norvegicus) (UniProt O09028+P15431+P18506+P18508+P19969+P20236+P23574+P23576+P28471+P28473+P30191+P62813+P63079+P63138+Q91ZM7+Q9ES14); conditions: Compound concentration 10.0 uM
[3] = biological target: Sodium-dependent serotonin transporter (Homo sapiens) (UniProt P31645); conditions: Compound concentration 10.0 uM
[4] = biological target: 5-hydroxytryptamine receptor 1A (Homo sapiens) (UniProt P08908); conditions: Compound concentration 10.0 uM
[5] = biological target: 5-hydroxytryptamine receptor 2A (Homo sapiens) (UniProt P28223); conditions: Compound concentration 10.0 uM
[6] = biological target: Alpha-2C adrenergic receptor (Homo sapiens, UniProt P18825); assay: GPCRScan assay: inhibition of Alpha2C; parameters: radioligand conc. used [nm] 0.5 – 1.0, parental cells stable MDCK
[7] = biological target: Muscarinic acetylcholine receptor M1 (Homo sapiens) (UniProt P11229); conditions: Compound concentration 10.0 uM
[8] = LXFA62 9 cell line Proliferation assay; assay type: functional, Homo sapiens, LXF 629L; conditions: Cell line Patient derived
[9] = biological target: Alpha-2C adrenergic receptor (Homo sapiens) (UniProt P18825); conditions: Compound concentration 10.0 uM
[10] = biological target: T3, Sigma intracellular receptor 2 (Homo sapiens, UniProt Q5BJF2); assay: GPCRScan assay: inhibition of Sigma 2; parameters: radioligand conc. used [nm] 5.0, parental cells HEKT
T3 sequence (Q5BJF2 whole entry): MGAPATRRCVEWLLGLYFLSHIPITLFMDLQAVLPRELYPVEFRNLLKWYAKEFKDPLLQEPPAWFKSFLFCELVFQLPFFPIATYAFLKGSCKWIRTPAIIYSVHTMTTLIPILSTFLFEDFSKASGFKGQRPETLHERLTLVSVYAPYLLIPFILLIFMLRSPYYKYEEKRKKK

[11] = biological target: Alpha-2A adrenergic receptor (Homo sapiens) (UniProt P08913); conditions: Compound concentration 10.0 uM
Alpha-2A adrenergic receptor (Homo sapiens), sequence (P08913 whole entry): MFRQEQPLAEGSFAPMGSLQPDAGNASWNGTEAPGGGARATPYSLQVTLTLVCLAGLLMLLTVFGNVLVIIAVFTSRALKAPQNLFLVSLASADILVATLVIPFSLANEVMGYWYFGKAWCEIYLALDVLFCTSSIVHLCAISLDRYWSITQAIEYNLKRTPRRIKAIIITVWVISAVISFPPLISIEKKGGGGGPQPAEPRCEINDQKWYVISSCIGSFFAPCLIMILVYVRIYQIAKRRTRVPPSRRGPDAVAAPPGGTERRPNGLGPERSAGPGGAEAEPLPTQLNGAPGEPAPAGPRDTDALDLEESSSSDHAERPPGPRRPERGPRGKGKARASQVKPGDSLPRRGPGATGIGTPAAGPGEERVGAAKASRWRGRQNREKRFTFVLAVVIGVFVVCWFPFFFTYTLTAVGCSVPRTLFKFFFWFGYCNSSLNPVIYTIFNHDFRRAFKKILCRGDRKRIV

Rattus norvegicus = organism: Rattus norvegicus; conditions: Compound concentration 10.0 uM
[12] = biological target: Beta-2 adrenergic receptor (Homo sapiens) (UniProt P07550); conditions: Compound concentration 10.0 uM
[13] = biological target: Beta-1 adrenergic receptor (Homo sapiens) (UniProt P08588); conditions: Compound concentration 10.0 uM
[14] = biological target: 5-hydroxytryptamine receptor 1B (Homo sapiens) (UniProt P28222); conditions: Compound concentration 10.0 uM
5-hydroxytryptamine receptor 1B (Homo sapiens), sequence (P28222 whole entry): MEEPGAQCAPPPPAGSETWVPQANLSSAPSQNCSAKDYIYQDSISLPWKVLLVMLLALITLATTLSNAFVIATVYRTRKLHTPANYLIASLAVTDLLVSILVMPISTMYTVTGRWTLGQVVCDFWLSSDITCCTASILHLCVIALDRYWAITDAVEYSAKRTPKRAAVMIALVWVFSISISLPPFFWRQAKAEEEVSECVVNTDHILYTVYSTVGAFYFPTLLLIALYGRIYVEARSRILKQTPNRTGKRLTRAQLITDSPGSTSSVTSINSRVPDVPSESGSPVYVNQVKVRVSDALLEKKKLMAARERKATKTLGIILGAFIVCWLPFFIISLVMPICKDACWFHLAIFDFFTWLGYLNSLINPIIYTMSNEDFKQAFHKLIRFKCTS

[15] = biological target: T4, 5-hydroxytryptamine receptor 2B (Homo sapiens, UniProt P41595); assay: GPCRScan assay: inhibition of 5-HT2B; parameters: radioligand conc. used [nm] 1.0 – 2.0, parental cells stable HEK
T4 sequence (P41595 whole entry): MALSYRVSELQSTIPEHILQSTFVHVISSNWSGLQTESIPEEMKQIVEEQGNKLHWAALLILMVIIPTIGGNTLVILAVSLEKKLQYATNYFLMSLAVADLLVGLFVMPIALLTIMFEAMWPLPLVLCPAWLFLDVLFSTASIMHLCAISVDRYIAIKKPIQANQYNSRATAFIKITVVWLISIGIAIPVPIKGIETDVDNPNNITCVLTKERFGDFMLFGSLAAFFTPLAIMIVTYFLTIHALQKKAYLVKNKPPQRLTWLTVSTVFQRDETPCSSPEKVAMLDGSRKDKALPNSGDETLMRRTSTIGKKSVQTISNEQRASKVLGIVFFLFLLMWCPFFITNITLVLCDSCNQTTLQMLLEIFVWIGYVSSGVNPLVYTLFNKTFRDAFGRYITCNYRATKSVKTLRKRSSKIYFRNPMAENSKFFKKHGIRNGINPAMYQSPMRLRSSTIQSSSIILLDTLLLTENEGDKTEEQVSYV

[16] = biological target: 5-hydroxytryptamine receptor 3A (Homo sapiens, UniProt P46098); assay: GPCRScan assay: inhibition of 5-HT3; parameters: radioligand conc. used [nm] 1.0 – 2.0, parental cells HEKT
[17] = biological target: Muscarinic acetylcholine receptor M4 (Homo sapiens) (UniProt P08173); conditions: Compound concentration 10.0 uM
[18] = biological target: Histamine H1 receptor (Homo sapiens) (UniProt P35367); conditions: Compound concentration 10.0 uM
Histamine H1 receptor (Homo sapiens), sequence (P35367 whole entry): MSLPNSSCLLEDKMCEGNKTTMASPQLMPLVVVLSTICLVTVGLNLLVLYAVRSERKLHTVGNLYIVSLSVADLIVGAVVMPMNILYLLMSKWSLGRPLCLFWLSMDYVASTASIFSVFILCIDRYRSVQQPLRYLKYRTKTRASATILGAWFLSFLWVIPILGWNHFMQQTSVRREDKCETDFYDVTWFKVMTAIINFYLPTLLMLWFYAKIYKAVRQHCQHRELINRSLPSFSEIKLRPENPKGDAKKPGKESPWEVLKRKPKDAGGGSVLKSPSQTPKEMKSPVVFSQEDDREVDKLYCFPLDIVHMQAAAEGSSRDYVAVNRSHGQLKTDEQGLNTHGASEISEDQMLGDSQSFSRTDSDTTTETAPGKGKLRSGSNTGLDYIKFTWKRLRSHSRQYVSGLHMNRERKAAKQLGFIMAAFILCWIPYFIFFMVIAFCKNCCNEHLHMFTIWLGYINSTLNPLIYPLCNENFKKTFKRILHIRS

[19] = biological target: 5-hydroxytryptamine receptor 1D (Homo sapiens) (UniProt P28221); conditions: Compound concentration 10.0 uM
5-hydroxytryptamine receptor 1D (Homo sapiens), sequence (P28221 whole entry): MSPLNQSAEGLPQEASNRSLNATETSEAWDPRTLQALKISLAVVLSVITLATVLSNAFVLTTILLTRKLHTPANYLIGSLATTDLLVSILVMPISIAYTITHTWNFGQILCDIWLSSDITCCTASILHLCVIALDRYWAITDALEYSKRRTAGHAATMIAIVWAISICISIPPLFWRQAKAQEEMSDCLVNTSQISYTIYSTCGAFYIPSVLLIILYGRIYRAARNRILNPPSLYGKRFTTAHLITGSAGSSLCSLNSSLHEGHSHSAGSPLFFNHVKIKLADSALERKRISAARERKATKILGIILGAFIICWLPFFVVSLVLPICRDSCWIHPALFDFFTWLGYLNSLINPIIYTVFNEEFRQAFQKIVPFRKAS

[20] = biological target: D(1A) dopamine receptor (Homo sapiens) (UniProt P21728); conditions: Compound concentration 10.0 uM
[21] = biological target: T2, GABA-A receptor; anion channel (Rattus norvegicus); conditions: Compound concentration 10.0 uM; remark: listed apart in the source
[22] = biological target: 5-hydroxytryptamine receptor 7 (Homo sapiens) (UniProt P34969); conditions: Compound concentration 10.0 uM
[23] = biological target: D(4) dopamine receptor (Homo sapiens) (UniProt P21917); conditions: Compound concentration 10.0 uM
Caco-2 = assay: Caco-2 cell line Proliferation assay; assay type: functional, Homo sapiens
[24] = biological target: Beta-3 adrenergic receptor (Homo sapiens) (UniProt P13945); conditions: Compound concentration 10.0 uM
Beta-3 adrenergic receptor (Homo sapiens), sequence (P13945 whole entry, looked up): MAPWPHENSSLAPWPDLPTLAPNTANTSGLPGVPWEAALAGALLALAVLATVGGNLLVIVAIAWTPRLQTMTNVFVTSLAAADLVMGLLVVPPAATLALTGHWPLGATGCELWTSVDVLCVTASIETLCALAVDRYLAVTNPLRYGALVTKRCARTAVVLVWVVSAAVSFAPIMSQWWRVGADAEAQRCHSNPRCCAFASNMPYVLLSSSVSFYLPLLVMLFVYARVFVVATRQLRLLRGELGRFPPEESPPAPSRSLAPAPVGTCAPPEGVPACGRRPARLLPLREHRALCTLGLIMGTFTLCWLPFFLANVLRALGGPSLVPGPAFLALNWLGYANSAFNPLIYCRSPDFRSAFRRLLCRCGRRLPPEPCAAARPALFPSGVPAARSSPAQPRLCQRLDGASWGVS

[25] = biological target: Histamine H4 receptor (Homo sapiens) (UniProt Q9H3N8); conditions: Compound concentration 10.0 uM
[26] = biological target: Delta-type opioid receptor (Homo sapiens) (UniProt P41143); conditions: Compound concentration 10.0 uM
[27] = biological target: Muscarinic acetylcholine receptor M2 (Homo sapiens) (UniProt P08172); conditions: Compound concentration 10.0 uM
Muscarinic acetylcholine receptor M2 (Homo sapiens), sequence (P08172 whole entry): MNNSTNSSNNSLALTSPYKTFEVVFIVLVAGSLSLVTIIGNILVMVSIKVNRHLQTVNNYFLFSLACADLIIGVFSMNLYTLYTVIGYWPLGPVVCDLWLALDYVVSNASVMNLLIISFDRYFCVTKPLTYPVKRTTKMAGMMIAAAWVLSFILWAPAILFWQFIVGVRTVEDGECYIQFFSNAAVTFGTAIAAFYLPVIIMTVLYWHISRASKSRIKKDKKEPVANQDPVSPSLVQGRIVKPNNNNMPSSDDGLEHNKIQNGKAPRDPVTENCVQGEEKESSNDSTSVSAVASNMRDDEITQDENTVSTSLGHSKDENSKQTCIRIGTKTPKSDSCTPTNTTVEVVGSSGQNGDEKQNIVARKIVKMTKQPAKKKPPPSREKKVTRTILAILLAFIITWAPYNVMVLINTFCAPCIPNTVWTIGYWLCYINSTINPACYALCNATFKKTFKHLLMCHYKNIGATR

[28] = biological target: D(3) dopamine receptor (Homo sapiens) (UniProt P35462); conditions: Compound concentration 10.0 uM
LOX IMVI = assay: LOX cell line Proliferation assay; assay type: functional, Homo sapiens
[29] = biological target: Alpha-1B adrenergic receptor (Homo sapiens) (UniProt P35368); conditions: Compound concentration 10.0 uM
[30] = biological target: Alpha-1D adrenergic receptor (Homo sapiens) (UniProt P25100); conditions: Compound concentration 10.0 uM
[31] = biological target: 5-hydroxytryptamine receptor 2C (Homo sapiens) (UniProt P28335); conditions: Compound concentration 10.0 uM
5-hydroxytryptamine receptor 2C (Homo sapiens), sequence (P28335 whole entry): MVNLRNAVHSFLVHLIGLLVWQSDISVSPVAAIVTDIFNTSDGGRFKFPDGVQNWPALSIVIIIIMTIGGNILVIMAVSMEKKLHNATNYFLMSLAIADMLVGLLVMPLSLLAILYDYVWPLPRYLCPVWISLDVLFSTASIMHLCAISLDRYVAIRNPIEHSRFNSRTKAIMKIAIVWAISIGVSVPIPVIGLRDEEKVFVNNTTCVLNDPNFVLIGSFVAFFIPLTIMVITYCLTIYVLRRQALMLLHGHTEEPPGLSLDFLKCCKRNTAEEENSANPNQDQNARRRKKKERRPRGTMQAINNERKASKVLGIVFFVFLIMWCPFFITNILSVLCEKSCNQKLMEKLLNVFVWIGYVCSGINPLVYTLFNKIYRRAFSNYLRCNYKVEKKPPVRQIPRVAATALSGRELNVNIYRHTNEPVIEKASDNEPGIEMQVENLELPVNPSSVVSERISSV

[32] = BXF121 8 cell line Proliferation assay; assay type: functional, Homo sapiens; conditions: Cell line Patient derived
[33] = biological target: T3, Sigma intracellular receptor 2; conditions: Compound concentration 10.0 uM
[34] = GXF25 1 cell line Proliferation assay; assay type: functional, Homo sapiens; conditions: Cell line Patient derived
[35] = biological target: Alpha-2B adrenergic receptor (Homo sapiens) (UniProt P18089); conditions: Compound concentration 10.0 uM
[36] = biological target: T1, Sigma non-opioid intracellular receptor 1; assay: GPCRScan assay: inhibition of Sigma 1; parameters: radioligand conc. used [nm] 4.0 – 5.0, parental cells HEKT
[37] = biological target: T4, 5-hydroxytryptamine receptor 2B; conditions: Compound concentration 10.0 uM
[38] = biological target: T5, 5-hydroxytryptamine receptor 6 (Homo sapiens, UniProt P50406); conditions: Compound concentration 10.0 uM
T5 sequence (P50406 whole entry): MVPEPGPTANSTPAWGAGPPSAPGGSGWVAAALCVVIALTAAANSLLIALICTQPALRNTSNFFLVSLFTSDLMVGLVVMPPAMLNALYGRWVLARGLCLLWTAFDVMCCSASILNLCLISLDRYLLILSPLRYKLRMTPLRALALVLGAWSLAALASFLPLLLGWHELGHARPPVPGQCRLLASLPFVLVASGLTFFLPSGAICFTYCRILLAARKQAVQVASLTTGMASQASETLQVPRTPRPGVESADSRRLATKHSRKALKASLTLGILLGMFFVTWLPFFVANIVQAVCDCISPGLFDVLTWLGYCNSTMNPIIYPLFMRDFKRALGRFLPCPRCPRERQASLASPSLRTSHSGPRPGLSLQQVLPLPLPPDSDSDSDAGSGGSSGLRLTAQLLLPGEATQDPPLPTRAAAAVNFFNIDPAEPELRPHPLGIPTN

BG-1 cell line = assay: BG1 cell line Proliferation assay; assay type: functional, Homo sapiens
[39] = biological target: Histamine H3 receptor (Homo sapiens) (UniProt Q9Y5N1); conditions: Compound concentration 10.0 uM
SK-MEL-28 = assay: SK- MEL-28 cell line Proliferation assay; assay type: functional, Homo sapiens
[40] = biological target: Histamine H2 receptor (Homo sapiens) (UniProt P25021); conditions: Compound concentration 10.0 uM
[41] = biological target: Alpha-1A adrenergic receptor (Homo sapiens) (UniProt P35348); conditions: Compound concentration 10.0 uM
[42] = biological target: Muscarinic acetylcholine receptor M5 (Homo sapiens) (UniProt P08912); conditions: Compound concentration 10.0 uM
[43] = biological target: 5-hydroxytryptamine receptor 5A (Homo sapiens) (UniProt P47898); conditions: Compound concentration 10.0 uM
[44] = biological target: 5-hydroxytryptamine receptor 1E (Homo sapiens) (UniProt P28566); conditions: Compound concentration 10.0 uM
[45] = biological target: Muscarinic acetylcholine receptor M3 (Homo sapiens) (UniProt P20309); conditions: Compound concentration 10.0 uM
[46] = biological target: Mu-type opioid receptor (Homo sapiens) (UniProt P35372); conditions: Compound concentration 10.0 uM
MKN-1 = assay: MKN1 cell line Proliferation assay; assay type: functional, Homo sapiens
[47] = BXF135 2 cell line Proliferation assay; assay type: functional, Homo sapiens; conditions: Cell line Patient derived
LS174T = assay: LS174T cell line Proliferation assay; assay type: functional, Homo sapiens
[48] = biological target: T5, 5-hydroxytryptamine receptor 6; assay: GPCRScan assay: inhibition of 5-HT6; parameters: radioligand conc. used [nm] 2.0 – 4.0, parental cells stable HEK
[49] = biological target: D(2) dopamine receptor (Homo sapiens) (UniProt P14416); conditions: Compound concentration 10.0 uM
[50] = biological target: 5-hydroxytryptamine receptor 3A (Homo sapiens) (UniProt P46098); conditions: Compound concentration 10.0 uM
[51] = biological target: Muscarinic acetylcholine receptor M2 (Homo sapiens, UniProt P08172); assay: GPCRScan assay: inhibition of M2; parameters: radioligand conc. used [nm] 0.2 – 1.0, parental cells stable CHO
Muscarinic acetylcholine receptor M2, sequence (P08172 whole entry): as the sequence (P08172 whole entry) above

[52] = biological target: Kappa-type opioid receptor (Homo sapiens) (UniProt P41145); conditions: Compound concentration 10.0 uM
Kappa-type opioid receptor (Homo sapiens), sequence (P41145 whole entry): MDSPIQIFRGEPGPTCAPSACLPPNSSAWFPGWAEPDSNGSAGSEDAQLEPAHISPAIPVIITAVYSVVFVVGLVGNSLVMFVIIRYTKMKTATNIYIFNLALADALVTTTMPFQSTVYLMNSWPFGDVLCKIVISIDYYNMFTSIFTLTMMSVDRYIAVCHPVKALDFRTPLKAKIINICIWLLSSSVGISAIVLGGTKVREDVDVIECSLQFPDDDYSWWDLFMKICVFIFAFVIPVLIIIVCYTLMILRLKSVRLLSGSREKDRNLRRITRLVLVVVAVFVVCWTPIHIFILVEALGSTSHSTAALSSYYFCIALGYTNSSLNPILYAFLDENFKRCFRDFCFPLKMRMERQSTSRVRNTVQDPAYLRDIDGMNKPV

RKO = assay: RKO cell line Proliferation assay; assay type: functional, Homo sapiens
[53] = biological target: D(1B) dopamine receptor (Homo sapiens) (UniProt P21918); conditions: Compound concentration 10.0 uM
[54] = biological target: Sodium-dependent noradrenaline transporter (Homo sapiens) (UniProt P23975); conditions: Compound concentration 10.0 uM
[55] = biological target: Sodium-dependent dopamine transporter (Homo sapiens) (UniProt Q01959); conditions: Compound concentration 10.0 uM

T1 sequence (Q99720 whole entry): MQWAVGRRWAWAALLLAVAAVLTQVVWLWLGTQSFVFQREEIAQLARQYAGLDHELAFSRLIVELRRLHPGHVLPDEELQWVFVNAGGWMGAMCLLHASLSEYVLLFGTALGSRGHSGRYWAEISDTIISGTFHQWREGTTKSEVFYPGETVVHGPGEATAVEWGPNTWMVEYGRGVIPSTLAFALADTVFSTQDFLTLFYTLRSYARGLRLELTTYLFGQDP

With `c1ccc2oc(-c3csc(C4CCN(Cc5nc6ncccc6[nH]5)CC4)n3)cc2c1` the inhibition [1] was 55.4%, the inhibition [2] was 7.9% and the inhibition [3] was 40.3%. The inhibition [4] was 16.4%, the inhibition [5] was 5.87% and the Ki [6] was 3500 nM. The inhibition [7] was 1.7%, the “Cell Proliferation EC50” value [8] was 66 nM and the “Cell Proliferation EC70” value [8] was 195 nM. It also gave an inhibition [9] of 53.4%, a Ki ([10]; read-out: Ki) of 1120 nM and a Ki ([10]; read-out: pKi (converted)) of 1100 nM. It also gave an inhibition [11] of 32.1%, an inhibition (Rattus norvegicus) of 20.2% and an inhibition [12] of 25.4%. For the same compound, the inhibition [13] was 20.9%, the inhibition [14] was 16% and the Ki ([15]; read-out: Ki) was 558 nM. For the same compound, the Ki ([15]; read-out: pKi (converted)) was 550 nM, the Ki ([16]; read-out: Ki) was 5460 nM and the Ki ([16]; read-out: pKi (converted)) was 5370 nM. The inhibition [17] was -4.61%, the inhibition [18] was 37.4% and the inhibition [19] was 16.9%. It also gave an inhibition [20] of -2.56%, an inhibition [21] of 48.3% and an inhibition [22] of 40.9%. The inhibition [23] was 16.5%, the “Cell Proliferation EC50” value (Caco-2) was 129 nM and the “Cell Proliferation EC70” value (Caco-2) was 209 nM. For the same compound, the inhibition [24] was 11.7%, the inhibition [25] was 2.33% and the inhibition [26] was 22%. The inhibition [27] was 54.2%, the inhibition [28] was 28.6% and the “Cell Proliferation EC50” value (LOX IMVI) was 126 nM. For the same compound, the “Cell Proliferation EC70” value (LOX IMVI) was 335 nM, the inhibition [29] was 35.7% and the inhibition [30] was 9.84%. For the same compound, the inhibition [31] was 20.2%, the “Cell Proliferation EC50” value [32] was 65 nM and the “Cell Proliferation EC70” value [32] was 104 nM. For the same compound, the inhibition [33] was 78.1%, the “Cell Proliferation EC50” value [34] was 81 nM and the “Cell Proliferation EC70” value [34] was 147 nM. It also gave an inhibition [35] of 28.7%, a Ki [36] of 1180 nM and an inhibition [37] of 74.5%. The inhibition [38] was 72.4%, the “Cell Proliferation EC50” value (BG-1 cell line) was 142 nM and the “Cell Proliferation EC70” value (BG-1 cell line) was 207 nM. The inhibition [39] was -4.94%, the “Cell Proliferation EC50” value (SK-MEL-28) was 75 nM and the “Cell Proliferation EC70” value (SK-MEL-28) was 215 nM. The inhibition [40] was 14.8%, the inhibition [41] was 15.5% and the inhibition [42] was -7.72%. It also gave an inhibition [43] of 19.9%, an inhibition [44] of 30.9% and an inhibition [45] of -0.2%. The inhibition [46] was 22.4%, the “Cell Proliferation EC50” value (MKN-1) was 34 nM and the “Cell Proliferation EC70” value (MKN-1) was 85 nM. The “Cell Proliferation EC50” value [47] was 23 nM, the “Cell Proliferation EC70” value [47] was 48 nM and the “Cell Proliferation EC50” value (LS174T) was 43 nM. The “Cell Proliferation EC70” value (LS174T) was 109 nM, the Ki [48] was 5240 nM and the inhibition [49] was 5.5%. The inhibition [50] was 72.1%, the Ki ([51]; read-out: Ki) was 5470 nM and the Ki ([51]; read-out: pKi (converted)) was 4420 nM. The inhibition [52] was 21.6%, the “Cell Proliferation EC50” value (RKO) was 153 nM and the “Cell Proliferation EC70” value (RKO) was 251 nM. The inhibition [53] was 5.5%.

For `Cn1c(-c2csc(C3CCN(CC4=NC5N=CC=CC5N4)CC3)n2)nc2ccccc21` (configuration not stated) [BAY-070], the inhibition [1] was 80%, the inhibition [3] was 7.08% and the inhibition [4] was 10.2%. The inhibition [5] was -4.2%, the inhibition [7] was 43.4% and the inhibition [9] was 19.9%. The Ki ([10]; read-out: Ki) was 152 nM, the inhibition [11] was 27.1% and the inhibition (Rattus norvegicus) was 13.7%. For the same compound, the inhibition [12] was 23%, the inhibition [13] was 19.9% and the inhibition [14] was 4.71%. For the same compound, the inhibition [54] was -3.53%, the Ki ([15]; read-out: Ki) was 1580 nM and the Ki ([15]; read-out: pKi (converted)) was 1510 nM. The inhibition [55] was -1.09%, the inhibition [17] was 14.7% and the inhibition [18] was 0.44%. The inhibition [19] was -0.96%, the inhibition [21] was -6.05% and the inhibition [22] was 10.1%. The inhibition [23] was 44%, the inhibition [24] was 19.5% and the inhibition [25] was -9.17%. The inhibition [26] was 3.76%, the inhibition [27] was 10.1% and the inhibition [28] was 47.6%. It also gave an inhibition [29] of 7.64%, an inhibition [30] of 14.4% and an inhibition [31] of 8.59%. For the same compound, the inhibition [33] was 98%, the inhibition [35] was 22% and the Ki [36] was 1290 nM. The inhibition [37] was 72%, the inhibition [38] was 31.4% and the inhibition [39] was -7.57%. The inhibition [40] was 1.91%, the inhibition [41] was 6.33% and the inhibition [42] was 13.5%. The inhibition [43] was 16.2%, the inhibition [45] was 16.1% and the inhibition [46] was 9.54%. For the same compound, the inhibition [49] was 44.6%, the inhibition [50] was 45.1% and the inhibition [52] was 18.1%. It also gave an inhibition [53] of 5.35%.
